The subject of experiment [1] is N87 stomach cancer cells. As to the kind of experiment: MTT cytotoxicity assay against N87 cells. It is filed as cell-based, human. To be noted: Homo sapiens, 96 h. As to the method:
Cytotoxicity of all the compounds against N87 cells was determined using MTT assay. Briefly, 25,000 cells suspended in 0.1 mL of cell culture media were added in each well of a 96-well plate. After allowing the cells to attach for 24 h, media was aspirated from all the wells, and different concentrations of anticancer compounds in cell culture media were added to the wells in triplicate. Six wells were incubated with drug free media, and used as control. 96 hours after the treatment, 25 μL of MTT solution (5 mg/mL in phosphate saline buffer, pH 7.4) was added to each well, and the plate was incubated for 4.5 hours at 37° C. in the incubator. After incubation, 100 μL of 10% SDS in 0.01 M hydrochloric acid was added to each well, and the plate was incubated overnight at 37° C. The next day absorbance was determined in each well at 590 nm using a plate reader. IC50 value of each compound was determined using GraphPad Prism.

In experiment [2] the test system is HL-60 leukemia cells. As to the kind of experiment: CellTiter-Blue cell viability assay against HL-60 cells. The class given is cell-based. The note with it: Homo sapiens, HL-60, 48 h, leukemia cells HL60, CellTiter-Blue. As to the method: HL-60 cells were purchased from CLS Cell Line Service GmbH (Eppelheim, Germany) and cultured in Roswell Park Memorial Institute-1640 medium (RPMI-1640; Thermo Fisher Scientific, Inc; Waltham, Mass., USA) supplemented with 10% fetal bovine serum (FBS; Thermo Fisher Scientific) and ciprofloxacin (10 μg/ml; Cipla Limited; Mumbai, India), at 37° C. with 5% CO2 in a humidified incubator.
The CellTiter®-Blue Cell Viability assay was acquired from Promega Corporation (Madison, Wis., USA). Cell viability assay was performed as follows. The cells (10^4/well) were incubated with KAC-12 at a concentration gradient ranging from 0.01 to 100 μM, in 96-well plates for 48 h at 37° C. Subsequently, 20 μL of CellTiter®-Blue Cell Viability reagent was added to each well and incubated for an additional 2 h for the development of fluorescence. The fluorescence emission was measured at 590 nm using the SpectraMax® i3x Multi-Mode microplate reader (Molecular Devices, LLC; San Jose, Calif., USA.) and plotted against drug concentrations to determine the mean inhibitory concentration of KAC-12 producing 50% decrease in cell viability (IC50).
For orientation: The colour change of resazurin is a common sign of viable cells or microbes.

In experiment [3] the test system is HCT116 colon cancer cells. As to the kind of experiment: MTT viability assay against HCT-116 cells. The class given is cell-based, human. As to the method: The KAC compounds were evaluated for antiproliferative effect against HCT-116 and MCF7 cell lines using the MTT viability assay and to calculate the relative IC50 values for each compound. Cells were seeded in triplicate in 96-well plates at a density of 10×10^3 cells/mL in a total volume of 100 μL per well and allowed to adhere overnight. Cells were treated with various concentrations of tested KAC compounds or 0.1% of DMSO (vehicle) for 27 h. Then the medium was discarded and 100 μL per well of MTT (5 mg/mL in PBS) containing medium was added. After incubation at 37° C. for 3 h, the MTT-containing medium was replaced by DMSO (100 μL per well) to dissolve the formazon crystal and incubated for 10 min. Absorbance of the solution was measured by microplate reader at […]. The IC50 values were calculated according to the dose-dependent curves using GraphPad prism, version 5.0. All the experiments were repeated in at least three independent experiments.

The results in this text go back to patent US11312680B2, “Method for treating a patient having a colon cancer” (King Abdulaziz University, priority 2019, dated 2022).

For orientation: IC50 means the midpoint of a concentration-inhibition curve. Low readings indicate inhibition by little substance, high ones a need for much substance.

With `Nc1ccc(CC(=O)NCc2ccccc2)cc1` [KAC-14, 2-(4-aminophenyl)-N-benzylacetamide], the IC50 in experiment [1] is more than 50 µM; in experiment [2], more than 50 µM; in experiment [3] (Homo sapiens, HCT-116, 27 h), more than 50 µM. The “IC50 HCT116” value in experiment [3] (27 h) is listed as “did not affect any of the tested cell lines”.
